According to patent publication US20240173374A1, “LIPOSOMAL FORMULATIONS OF BORONIC ACID CONTAINING ACTIVE AGENTS” (Ohio State Innovation Foundation, priority 2021, published 2024):

What was measured:
[1] = BTZ / boronic acid drug loading into liposomes (UV absorption or HPLC); format: physicochemical; conditions: tiron-based liposomes, same drug loading protocol
Description: Remote loading of BTZ into liposomes encapsulating calcium ascorbate/calcium acetate. Lipids (DSPC/Chol/mPEG-DSPE 60:35:5 mole/mole) were dissolved in chloroform, dried into a thin film on a round-bottom flask and hydrated in 100 mM calcium ascorbate/50 mM calcium acetate (pH 8). The resulting liposomes were subjected to 5 cycles of freezing and thawing and extrusion through a 100-nm pore size polycarbonate membrane in a Lipex extruder at 65 degree. […] External buffer of the liposomes was exchanged to 130 mM NaCl/10 mM histidine (pH 6) by passing through a Sepharose CL-4B column. […] BTZ was dissolved in a small volume of DMSO and added to the liposomes and incubated under stirring at 20-60 degrees for 10-60 min (e.g., 30 min at 50 degree) to facilitate remote loading. BTZ diffuses into the liposomes and forms a complex with ascorbic acid (BTZ-ASC complex), which is negatively charged and partially precipitates intraliposome with calcium, resulting in stable encapsulation of the BTZ. Finally, unencapsulated BTZ was removed from the liposomes by passing through a Sepharose CL-4B column. BTZ concentration in the L-BTZ was determined by UV absorption or by HPLC. […]
Remote loading of BTZ into liposomes containing ascorbyl palmitate (ASC-C16) and encapsulating calcium acetate. […] BTZ concentration in the L-BTZ was determined by UV absorption or by HPLC. […]

[2] = AML trial; cited from earlier work
[3] = Plasma pharmacokinetics of L-BTZ and Velcade in rats after single dose; format: in vivo; conditions: 0.6 mg/kg, 5 ul/g, plasma BTZ by LC-MS
Description: Plasma concentrations were determined by LC-MS. Compared to Velcade, the circulation time L-BTZ was much longer, which subsequently enhances the therapeutic effect and half-life time in vivo.

[4] = tested on: AML murine model; conditions: cited from earlier work
[5] = clinical trial for SLE; cited from earlier work
[6] = tested on: NCI-H929 multiple myeloma; assay: Antitumor activity in NCI-H929 multiple myeloma subcutaneous murine xenograft model; format: in vivo, mice; conditions: FIG. 3B
From the text: (3A) anti-tumor effect, (3B) body weight loss, and (3C) survival curves result in vivo.

Row | drug loading [1] | CLss_F ([3]; i.v.) [L/h/kg] | Vz_F ([3]; i.v.) [L/kg] | AUC(0-inf) ([3]; rat, iv) [µg·h/mL] | AUC(0-t) ([3]; rat, iv) [µg·h/mL] | Cmax ([3]; rat, iv) [µg/mL] | Tmax ([3]; rat, iv) [h] | half-life ([3]; rat, iv) [h] | Structure (SMILES) | drop out due to neurotoxicity [2] | reaching effective dose (limited by toxicity) [4] | dropped out due to side effects [5] | body weight loss during treatment [6]
1 | High drug loading | – | – | – | – | – | – | – | CC(C)C[C@H](NC(=O)[C@@H](NC(=O)c1cccc(-c2ccccc2)n1)[C@@H](C)O)B(O)O [delanzomib] | – | – | – | –
2 | High drug loading | – | – | – | – | – | – | – | CC(C)C[C@H](NC(=O)CNC(=O)c1cc(Cl)ccc1Cl)B(O)O [ixazomib] | – | – | – | –
3 | – | 1.134 | 54.22 | 0.864 | 0.322 | 0.0454 | 0.25 | 33.1 | CC(C)C[C@H](NC(=O)[C@H](Cc1ccccc1)NC(=O)c1cnccn1)B(O)O [free BTZ, Bortezomib] | 4/7 | cannot reach effective dose | 7/12 | no significant body weight loss
